# Results as given in patent US20230203058A1, “MACROCYCLIC DIAMINE DERIVATIVES AS ENT INHIBITORS FOR THE TREATMENT OF CANCERS, AND COMBINATION THEREOF WITH ADENOSINE RECEPTOR ANTAGONISTS” (ITEOS BELGIUM SA, priority 2020, published 2023).
# Biological target: T1, human ENT1 (Homo sapiens, UniProt Q99808)
# T1 sequence (Q99808 1-456): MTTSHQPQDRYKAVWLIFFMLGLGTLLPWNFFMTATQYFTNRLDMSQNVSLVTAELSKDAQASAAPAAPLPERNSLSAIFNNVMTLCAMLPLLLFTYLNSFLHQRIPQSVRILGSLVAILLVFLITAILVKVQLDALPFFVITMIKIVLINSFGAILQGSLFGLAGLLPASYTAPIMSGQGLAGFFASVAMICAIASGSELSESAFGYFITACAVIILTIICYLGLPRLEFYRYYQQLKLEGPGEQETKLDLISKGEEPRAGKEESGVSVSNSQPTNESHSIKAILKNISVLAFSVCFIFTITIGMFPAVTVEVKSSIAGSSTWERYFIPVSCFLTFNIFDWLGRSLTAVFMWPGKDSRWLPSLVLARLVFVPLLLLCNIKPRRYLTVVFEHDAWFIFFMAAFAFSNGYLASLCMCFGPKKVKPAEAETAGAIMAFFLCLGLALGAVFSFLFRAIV
# Assay: ENT1 binding assay (competition with Sahenta-DY647 on JAR cells)
# Design: JAR cells expressing ENT1 were bought from ATCC® (HTB-144TM); host or cells: JAR cells (human choriocarcinoma line; whole cells)
# Conditions: competition with Sahenta-DY647 100 nM, 4° C.
# Description: The present assay aims at showing that the compounds of the present invention can bind to human ENT1. The principle of the assay is a competition between the compounds of this invention and Sahenta-DY647, an ENT1 inhibitor that emits fluorescence (Ex = 630 nm, Em = 670 nm). By measuring the fluorescence at the end of the assay we could assess the binding potency of the compounds of the present invention.
# JAR cells expressing ENT1 were bought from ATCC® (HTB-144TM). Cells were cultured in RPMI 1640 medium (LONZA®, #BE12-702F/U1) supplemented with 10% FBS (GIBCO®, #10270-106), 10 mM Hepes (LONZA®, #BE17-737E), 1 mM Sodium Pyruvate (LONZA®, #BE13-115E) and 2% Penicillin/Streptomycin (LONZA®, #DE17-603E) at 37° C. and 5% CO2. The assay was conducted on the following buffer: HBSS (LONZA®, #LO-527F) supplemented with 10 mM Hepes (LONZA®, #BE17-737E) and 0.1% BSA (Miltenyi®, #130-091-376) on the day of the assay. JAR cells were resuspended in the described buffer. Compounds of the present invention and Sahenta-DY647 were diluted 200X in the described buffer.
# A total of 50000 cells were pre-incubated for 30 min at 4° C. with the compounds of the present invention before adding the corresponded IC90 of Sahenta-DY647 (100 nM) and incubate once more for 30 min at 4° C. The total volume of the reaction was 100 µL (50 µL of cells, 25 µL of the compounds of the present invention and 25 µL of Sahenta-DY647) in a 96 well plate, U-bottom (Greiner®, #650-180). The plates were washed 2X by centrifugation (4 min, 400 rcf at 4° C.) in the same buffer. Cells were resuspended in 70 µL of the buffer and 50 µL was transferred to a Black 384 Optiplate (PerkinElmer®, #6007279). Fluorescence (Ex = 630 nm, Em = 670 nm) was acquired on a Spectramax i3x (Molecular Devices®).
row,IC50 [µM],SMILES
1,0.001 to 0.02,"COc1cc2cc(c1OC)OCCCC(OC(=O)CCC(=O)N1CCOCC1)CCN1CCCN(CCCOC2=O)CC1 (stereo not drawn) [Compound 103, 74,75-dimethoxy-6-oxo-5,8-dioxa-1 (1,4)-diazepana-7(1,3)-benzenacyclotetradecaphane-12-yl 4-morpholino-4-oxobutanoate]"
2,> 0.5,"COc1cc(C(=O)O[C@@H]2CCCn3cc4c(Cl)cc(cc4n3)C(=O)NCCCN3CCCN(CC2)CC3)cc(OC)c1OC [Compound 26, (11Z, 16E, 10R)-14-chloro-2-oxo-12H-3-aza-1(6,2)-indazola-7(1,4)-diazepanacyclotridecaphane-10-yl 3,4,5-trimethoxybenzoate]"
3,0.02 to 0.5,"COc1cc2cc(c1OC)OCCCC(OC(=O)[C@H]1[C@@H]3COC[C@@H]31)CCN1CCCN(CCCOC2=O)CC1 (stereo partly drawn) [Compound 67, 74,75-dimethoxy-6-oxo-5,8-dioxa-1(1,4)-diazepana-7(1,3)-benzenacyclotetradecaphane-12-yl (1R,5S,6r)-3-oxabicyclo[3.1.0]hexane-6-carboxylate]"
4,0.001 to 0.02,"COc1cc(C(=O)OC2CCCOc3cc(cc(C(N)=O)c3Cl)C(=O)OCCCN3CCCN(CC2)CC3)cc(OC)c1OC (stereo not drawn) [Compound 120, 75-carbamoyl-74-chloro-6-oxo-5,8-dioxa-1(1,4)-diazepana-7(1,3)-benzenacyclotetradecaphane-12-yl 3,4,5-trimethoxybenzoate]"
5,> 0.5,"COc1cc2cc(c1OC)OCCC[C@H](O)CCN1CCCN(CCCOC2=O)CC1 [Compound 40, (12S)-12-hydroxy-74,75-dimethoxy-5,8-dioxa-1(1,4)-diazepana-7(1,3)-benzenacyclotetradecaphan-6-one]"
6,> 0.5,"O=C1NCCCN2CCCN(CC[C@H](OC(=O)c3ccccc3)CCCOc3cccc1c3)CC2 (stereo in doubt) [Compound 20, (12R)-6-oxo-8-oxa-5-aza-1(1,4)-diazepana-7(1,3)-benzenacyclotetradecaphane-12-yl benzoate]"
7,0.02 to 0.5,"COc1ccc(C(=O)OC2CCCOc3cc(cc(OC)c3OC)C(=O)OCCCN3CCCN(CC2)CC3)c(OC(F)(F)F)c1 (stereo not drawn) [Compound 51, 74,75-dimethoxy-6-oxo-5,8-dioxa-1(1,4)-diazepana-7(1,3)-benzenacyclotetradecaphane-12-yl 4-methoxy-2-(trifluoromethoxy)benzoate]"
8,0.001 to 0.02,"COc1cc2cc(c1OC)OCCCC(OC(=O)C1CC(=O)N(Cc3ccccc3)C1)CCN1CCCN(CCCOC2=O)CC1 (stereo not drawn) [Compound 69, 74,75-dimethoxy-6-oxo-5,8-dioxa-1(1,4)-diazepana-7(1,3)-benzenacyclotetradecaphane-12-yl 1-benzyl-5-oxopyrrolidine-3-carboxylate]"
9,0.001 to 0.02,"COc1cc(C(=O)O[C@H]2CCCOc3cc(cc(OC)c3OC)C(=O)OCCCN3CCN(CC2)CC(F)(F)C3)cc(OC)c1OC [Compound 119, (12S)-16,16-difluoro-74,75-dimethoxy-6-oxo-5,8-dioxa-1(1,4)-diazepana-7(1,3)-benzenacyclotetradecaphane-12-yl 3,4,5-trimethoxybenzoate]"
10,0.001 to 0.02,"COc1cc2cc(c1OC)OCCCC(OC(=O)c1ccc3c(c1)CCC(=O)N3)CCN1CCCN(CCCOC2=O)CC1 (stereo not drawn) [Compound 74, 74,75-dimethoxy-6-oxo-5,8-dioxa-1(1,4)-diazepana-7(1,3)-benzenacyclotetradecaphane-12-yl 2-oxo-1,2,3,4-tetrahydroquinoline-6-carboxylate]"
11,> 0.5,"COc1cc(C(=O)O[C@H]2CCCn3cc4c(Cl)cc(cc4n3)C(=O)NCCCN3CCCN(CC2)CC3)cc(OC)c1OC [Compound 25, (11Z, 16E, 10S)-14-chloro-2-oxo-12 H-3-aza-1(6,2)-indazola-7(1,4)-diazepanacyclotridecaphane-10-yl 3,4,5-trimethoxybenzoate]"
12,> 0.5,"COc1cc2cc(c1OC)OCCC[C@H](O/N=C/c1ccccc1)CCN1CCCN(CCCNC2=O)CC1 (stereo in doubt) [Compound 116, (E)-benzaldehyde O-((12S)-74,75-dimethoxy-6-oxo-8-oxa-5-aza-1(1,4)-diazepana-7(1,3)-benzenacyclotetradecaphane-12-yl) oxime]"
13,0.02 to 0.5,"COc1cc2cc(c1OC)OCCCC(OC(=O)C1CC(C)(C)C1)CCN1CCCN(CCCOC2=O)CC1 (stereo not drawn) [Compound 65, 74,75-dimethoxy-6-oxo-5,8-dioxa-1(1,4)-diazepana-7(1,3)-benzenacyclotetradecaphane-12-yl 3,3-dimethylcyclobutane-1-carboxylate]"
14,0.001 to 0.02,"COc1cc2cc(c1OC)OCCCC(OC(=O)c1cc(F)cc(F)c1)CCN1CCCN(CCCOC2=O)CC1 (stereo not drawn) [Compound 84, 74,75-dimethoxy-6-oxo-5,8-dioxa-1(1,4)-diazepana-7(1,3)-benzenacyclotetradecaphane-12-yl 3,5-difluorobenzoate]"
15,0.001 to 0.02,"COc1cc2cc(c1OC)OCCCC(OC(=O)c1ccc(-c3cnco3)cc1)CCN1CCCN(CCCOC2=O)CC1 (stereo not drawn) [Compound 90, 74,75-dimethoxy-6-oxo-5,8-dioxa-1(1,4)-diazepana-7(1,3)-benzenacyclotetradecaphane-12-yl 4-(oxazol-5-yl)benzoate]"
16,> 0.5,"COc1cc2cc(c1OC)OCCCC(n1cc(-c3ccccc3)nn1)CCN1CCCN(CCCOC2=O)CC1 (stereo not drawn) [Compound 108, 74,75-dimethoxy-12-(4-phenyl-1 H-1,2,3-triazol-1-yl)-5,8-dioxa-1(1,4)-diazepana-7(1,3)-benzenacyclotetradecaphan-6-one]"
17,0.02 to 0.5,"COc1cc2cc(c1OC)OCCCC(OC(=O)CC(C)C)CCN1CCCN(CCCOC2=O)CC1 (stereo not drawn) [Compound 61, 74,75-dimethoxy-6-oxo-5,8-dioxa-1(1,4)-diazepana-7(1,3)-benzenacyclotetradecaphane-12-yl 3-methylbutanoate]"
18,0.001 to 0.02,"COc1cc2cc(c1OC)OCCCC(OC(=O)c1cccc3ncccc13)CCN1CCCN(CCCOC2=O)CC1 (stereo not drawn) [Compound 56, 74,75-dimethoxy-6-oxo-5,8-dioxa-1(1,4)-diazepana-7(1,3)-benzenacyclotetradecaphane-12-yl quinoline-5-carboxylate]"
19,0.001 to 0.02,"COc1cc2cc(c1OC)OCCCC(OC(=O)c1ccc3c(c1)ncn3C)CCN1CCCN(CCCOC2=O)CC1 (stereo not drawn) [Compound 89, 74,75-dimethoxy-6-oxo-5,8-dioxa-1(1,4)-diazepana-7(1,3)-benzenacyclotetradecaphane-12-yl 1-methyl-1 H-benzo [d] imidazole-5-carboxylate]"
20,0.001 to 0.02,"COc1cc2cc(c1OC)OCCCC(n1nnc(-c3ccccc3)n1)CCN1CCCN(CCCOC2=O)CC1 (stereo not drawn) [Compound 107, 74,75-dimethoxy-12-(5-phenyl-2 H-tetrazol-2-yl)-5,8-dioxa-1(1,4)-diazepana-7(1,3)-benzenacyclotetradecaphan-6-one]"
21,> 0.5,"COc1cc2cc(c1OC)OCCC[C@@H](O/N=C/c1ccccc1)CCN1CCCN(CCCNC2=O)CC1 [Compound 115, (E)-benzaldehyde O-((12R)-74,75-dimethoxy-6-oxo-8-oxa-5-aza-1(1,4)-diazepana-7(1,3)-benzenacyclotetradecaphane-12-yl) oxime]"
22,0.02 to 0.5,"COc1cc(C(=O)O[C@H]2CCCOc3cc(cc(Cl)c3C(N)=O)C(=O)NCCCN3CCCN(CC2)CC3)cc(OC)c1OC [Compound 121, (12S)-74-carbamoyl-75-chloro-6-oxo-8-oxa-5-aza-1(1,4)-diazepana-7(1,3)-benzenacyclotetradecaphane-12-yl 3,4,5-trimethoxybenzoate]"
23,0.001 to 0.02,"COc1cc2cc(c1OC)OCCCC(OC(=O)C1CCCC(OC)C1)CCN1CCCN(CCCOC2=O)CC1 (stereo not drawn) [Compound 111, 74,75-dimethoxy-6-oxo-5,8-dioxa-1(1,4)-diazepana-7(1,3)-benzenacyclotetradecaphane-12-yl 3-methoxycyclohexane-1-carboxylate]"
24,0.02 to 0.5,"COc1cc2cc(c1OC)OCCCC(OC(=O)c1cccc(OC(F)F)c1)CCN1CCCN(CCCOC2=O)CC1 (stereo not drawn) [Compound 75, 74,75-dimethoxy-6-oxo-5,8-dioxa-1(1,4)-diazepana-7(1,3)-benzenacyclotetradecaphane-12-yl 3-(difluoromethoxy)benzoate]"
